Measurements published in US20170037028A1 (BAYER PHARMA AKTIENGESELLSCHAFT, priority 2013, published 2017).
Like-named read-outs stand apart in the source and are kept apart here.

Biological target: T1, GLUT1 (Homo sapiens, UniProt P11166)
T1 sequence (P11166 1-492): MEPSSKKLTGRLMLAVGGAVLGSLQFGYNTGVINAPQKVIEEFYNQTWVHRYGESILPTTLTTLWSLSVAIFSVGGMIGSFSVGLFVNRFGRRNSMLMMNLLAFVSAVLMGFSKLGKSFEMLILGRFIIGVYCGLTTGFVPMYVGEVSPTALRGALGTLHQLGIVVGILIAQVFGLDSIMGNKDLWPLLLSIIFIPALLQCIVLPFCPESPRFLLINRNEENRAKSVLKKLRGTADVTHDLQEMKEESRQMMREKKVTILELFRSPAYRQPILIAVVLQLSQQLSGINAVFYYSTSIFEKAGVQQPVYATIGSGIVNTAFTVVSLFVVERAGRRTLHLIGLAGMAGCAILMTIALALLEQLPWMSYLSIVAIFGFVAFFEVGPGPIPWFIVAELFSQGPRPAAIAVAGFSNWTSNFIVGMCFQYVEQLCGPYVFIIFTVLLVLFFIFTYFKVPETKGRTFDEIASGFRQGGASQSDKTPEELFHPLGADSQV
Assay: Indirect measurement of GLUT1 activity by quantification of intracellular ATP levels (glucose induced ATP increase)
Type: cell-based
Design: endogenous in cells; host or cells: DLD1 or CHO-K1
Conditions: read-out: IC50 regarding glucose induced ATP increase (GLUT1 inhibition)
Method in brief: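 DLD1 or CHO-K1 cells were starved overnight in glucose-free medium with 1% FCS, then combined with an oxidative phosphorylation inhibitor. GLUT1 activity was read as glucose-induced ATP increase, GLUT2 as fructose-induced. Intracellular ATP was quantified by CellTiter-Glo luminescence.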

IC50 [nM]	SMILES	IC50 (DLD1 cells, 0.1 mM glucose, 1 μM Rotenone, 15 min, CellTiter-Glo ATP readout, IC50 values standardized to cytochalasin B IC50 values) [nM]
1.3	Cc1nn(Cc2ccc(F)cc2C#N)c(C)c1NC(=O)c1cc(C(N)=O)nc2cc(F)ccc12 [Example 1660]	
3.4	Cc1nn(Cc2ccc(F)cc2C#N)c(C)c1NC(=O)c1cc(C(N)=O)nc2ccccc12 [Example 1661]	
4	Cc1nn(Cc2ccc(F)cc2C#N)c(C)c1NC(=O)c1cc(C(N)=O)nc2cccc(F)c12 [Example 1662]	
1.1	Cc1nn(Cc2ccc(F)cc2C#N)c(C)c1NC(=O)c1cc(C(N)=O)nc2cc(F)c(Cl)cc12 [Example 1663]	
2.6	COc1cc(Cn2nc(C(F)(F)F)c(NC(=O)c3cc(C(N)=O)nc4cc(F)ccc34)c2C)ccc1C#N [Example 1664]	
3.8	COc1cc(Cn2nc(C(F)(F)F)c(NC(=O)c3cc(C(N)=O)nc4cccc(F)c34)c2C)ccc1C#N [Example 1665]	
0.8	COc1cc(Cn2nc(C(F)(F)F)c(NC(=O)c3cc(C(N)=O)nc4cc(F)c(Cl)cc34)c2C)ccc1C#N [Example 1666]	
46.6	Cc1c(NC(=O)c2cc(C(N)=O)nc3ccccc23)c(C(F)(F)F)nn1Cc1ccc(C(C)(C)C#N)cc1 [Example 1667]	
23.6	Cc1c(NC(=O)c2cc(C(N)=O)nc3cc(F)ccc23)c(C(F)(F)F)nn1Cc1ccc(C#N)cc1O [Example 1668]	
17.1	CCOC(=O)c1cc(Cn2nc(C)c(NC(=O)c3cc(C(N)=O)nc4cc(F)ccc34)c2C)on1 [Example 1670]	
149	Cc1c(NC(=O)c2cc(C(N)=O)nc3ccccc23)c(C(F)(F)F)nn1CC(=O)Nc1ccccc1O [Example 1671]	
151	Cc1c(NC(=O)c2cc(C(N)=O)nc3ccccc23)c(C(F)(F)F)nn1Cc1cc(C#N)no1 [Example 1672]	
56.1	Cc1c(NC(=O)c2cc(C(N)=O)nc3cc(F)c(Cl)cc23)c(C(F)(F)F)nn1Cc1cc(C#N)no1 [Example 1673]	
21	Cc1c(NC(=O)c2cc(C(N)=O)nc3cc(F)ccc23)c(C(F)(F)F)nn1Cc1csc(C#N)n1 [Example 1674]	
81.8	Cc1c(NC(=O)c2cc(C(N)=O)nc3cc(F)c(Cl)cc23)c(C(F)(F)F)nn1Cc1cc(CN2CCOCC2)on1 [Example 1676]	
353	CCOC(=O)c1cc(Cn2nc(C(F)(F)F)c(NC(=O)c3cc(C(N)=O)nc4cc(F)ccc34)c2C)on1 [Example 1677]	

Continued, compound first:

SMILES	IC50 [nM]	IC50 (DLD1 cells, 0.1 mM glucose, 1 μM Rotenone, 15 min, CellTiter-Glo ATP readout, IC50 values standardized to cytochalasin B IC50 values) [nM]
CC(=O)c1cccc(Cn2nc(C)c(NC(=O)c3cc(C(N)=O)nc4cc(F)c(Cl)cc34)c2C)c1 [Example 1623]	0.8	
CC(=O)c1cccc(Cn2nc(C)c(NC(=O)c3cc(C(N)=O)nc4cccc(F)c34)c2C)c1 [Example 1624]	18.7	
CC(=O)c1cccc(Cn2nc(C)c(NC(=O)c3cc(C(N)=O)nc4cc(F)ccc34)c2C)c1 [Example 1625]	40.9	
CC(=O)c1cccc(Cn2nc(C)c(NC(=O)c3cc(C(N)=O)nc4ccccc34)c2C)c1 [Example 1626]	107	
Cc1c(NC(=O)c2cc(C(N)=O)nc3cc(F)ccc23)c(C(F)(F)F)nn1Cc1c(F)cccc1F [Example 1627]	30.5	
Cc1c(NC(=O)c2cc(C(N)=O)nc3ccccc23)c(C(F)(F)F)nn1Cc1c(F)cccc1F [Example 1628]	15.3	
Cc1c(NC(=O)c2cc(C(N)=O)nc3cccc(F)c23)c(C(F)(F)F)nn1Cc1c(F)cccc1F [Example 1629]	16.2	
Cc1c(NC(=O)c2cc(C(N)=O)nc3cc(F)c(Cl)cc23)c(C(F)(F)F)nn1Cc1c(F)cccc1F [Example 1630]	4	
Cc1nn(Cc2c(F)cccc2F)c(C)c1NC(=O)c1cc(C(N)=O)nc2cc(F)ccc12 [Example 1631]	6.5	
Cc1nn(Cc2c(F)cccc2F)c(C)c1NC(=O)c1cc(C(N)=O)nc2ccccc12 [Example 1632]	10	
Cc1nn(Cc2c(F)cccc2F)c(C)c1NC(=O)c1cc(C(N)=O)nc2cccc(F)c12 [Example 1633]	4.6	
Cc1nn(Cc2c(F)cccc2F)c(C)c1NC(=O)c1cc(C(N)=O)nc2cc(F)c(Cl)cc12 [Example 1634]	2.2	
Cc1c(NC(=O)c2cc(C(N)=O)nc3ccccc23)c(C(F)(F)F)nn1Cc1cccc(S(C)(=O)=O)c1 [Example 1636]	292	
Cc1c(NC(=O)c2cc(C(N)=O)nc3cc(F)ccc23)c(C(F)(F)F)nn1Cc1cccc(S(C)(=O)=O)c1 [Example 1637]	288	
Cc1c(NC(=O)c2cc(C(N)=O)nc3cc(F)c(Cl)cc23)c(C(F)(F)F)nn1Cc1cccc(S(C)(=O)=O)c1 [Example 1638]	61.3	
Cc1c(NC(=O)c2cc(C(N)=O)nc3cccc(F)c23)c(C(F)(F)F)nn1Cc1cccc(S(C)(=O)=O)c1 [Example 1639]	273	
Cc1nn(Cc2cccc(S(C)(=O)=O)c2)c(C)c1NC(=O)c1cc(C(N)=O)nc2cc(F)ccc12 [Example 1640]	277	
Cc1nn(Cc2cccc(S(C)(=O)=O)c2)c(C)c1NC(=O)c1cc(C(N)=O)nc2cccc(F)c12 [Example 1641]	168	

SMILES	IC50 [nM]	IC50 (DLD1 cells, 0.1 mM glucose, 1 μM Rotenone, 15 min, CellTiter-Glo ATP readout, IC50 values standardized to cytochalasin B IC50 values) [nM]
Cc1nn(Cc2cccc(S(C)(=O)=O)c2)c(C)c1NC(=O)c1cc(C(N)=O)nc2ccccc12 [Example 1642]	289	
Cc1nn(Cc2cccc(S(C)(=O)=O)c2)c(C)c1NC(=O)c1cc(C(N)=O)nc2cc(F)c(Cl)cc12 [Example 1643]	34.4	
COc1cc(C#N)ccc1Cn1nc(C(F)(F)F)c(NC(=O)c2cc(C(N)=O)nc3cc(F)ccc23)c1C [Example 1646]	2.3	
COc1cc(C#N)ccc1Cn1nc(C(F)(F)F)c(NC(=O)c2cc(C(N)=O)nc3cccc(F)c23)c1C [Example 1647]	2.7	
COc1cc(C#N)ccc1Cn1nc(C(F)(F)F)c(NC(=O)c2cc(C(N)=O)nc3cc(F)c(Cl)cc23)c1C [Example 1648]	2.3	
COc1cc(C#N)ccc1Cn1nc(C)c(NC(=O)c2cc(C(N)=O)nc3cc(F)ccc23)c1C [Example 1649]	67.2	
COc1cc(C#N)ccc1Cn1nc(C)c(NC(=O)c2cc(C(N)=O)nc3cccc(F)c23)c1C [Example 1650]	10.3	
COc1cc(C#N)ccc1Cn1nc(C)c(NC(=O)c2cc(C(N)=O)nc3cc(F)c(Cl)cc23)c1C [Example 1651]	3.2	
Cc1c(NC(=O)c2cc(C(N)=O)nc3ccccc23)c(C(F)(F)F)nn1Cc1cc(F)ccc1C#N [Example 1652]	112	
Cc1c(NC(=O)c2cc(C(N)=O)nc3cc(F)ccc23)c(C(F)(F)F)nn1Cc1cc(F)ccc1C#N [Example 1653]	266	
Cc1c(NC(=O)c2cc(C(N)=O)nc3cccc(F)c23)c(C(F)(F)F)nn1Cc1cc(F)ccc1C#N [Example 1654]	221	
Cc1c(NC(=O)c2cc(C(N)=O)nc3cc(F)c(Cl)cc23)c(C(F)(F)F)nn1Cc1cc(F)ccc1C#N [Example 1655]	238	
Cc1c(NC(=O)c2cc(C(N)=O)nc3cccc(F)c23)c(C(F)(F)F)nn1Cc1ccc(F)cc1C#N [Example 1656]	12.5	
Cc1c(NC(=O)c2cc(C(N)=O)nc3cc(F)c(Cl)cc23)c(C(F)(F)F)nn1Cc1ccc(F)cc1C#N [Example 1657]	3.4	
Cc1c(NC(=O)c2cc(C(N)=O)nc3cc(F)ccc23)c(C(F)(F)F)nn1Cc1ccc(F)cc1C#N [Example 1658]	3.2	
Cc1c(NC(=O)c2cc(C(N)=O)nc3ccccc23)c(C(F)(F)F)nn1Cc1ccc(F)cc1C#N [Example 1659]	4.7	
Cc1c(NC(=O)c2cc(C(N)=O)nc3cc(F)ccc23)c(C(F)(F)F)nn1Cc1cc(C#N)no1 [Example 1669]		88.8
